Experimental data: patent US10119168B2, “Methods for the treatment of kidney fibrosis” (priority 2014, dated 2018)

Test system: mouse kidney
Test: RNA-seq of kidney gene expression over time in FA nephropathy progression (Table 1)
Format: in vivo
Excerpt: Identification of Candidate Genes for Biomarkers of Kidney Fibrosis Through RNA-Seq. […] To select genes that are indicative of fibrosis candidates were considered from this later group that had robust upregulation (>5-fold with >100 read counts at peak) over time as fibrosis progresses. Another important criteria was the location of the protein product of the gene, either in extracellular matrix or transmembrane, to increase the chance of detecting it in the urine and use it as a biomarker(11).
(§1) RNA samples (n=3 mice/time point) were sequenced at the Bioplymers Facility at the Harvard Medical School. Libraries were prepared from 10 ng total RNA per sample using the IntegenX Apollo 324 system and NuGEN SPIA reagents. Libraries were multiplexed in groups of three per lane of a flowcell and 50 cycle, paired-end sequencing was performed on an Illumina HiSeq2000 instrument. Illumina sequence quality was surveyed with FastQC (available on the world wide web at bioinformatics.babraham.ac.uk/projects/fastqc/) to ensure suitability of library generation and sequencing for further analysis. Adapters and lower quality bases were trimmed with Cutadapt (available on the world wide web at code.google.com/p/cutadapt/), using a Phred quality cutoff of 20, and reassessed with FastQC. Trimmed reads were aligned to the Ensembl NCBIM37 Mus musculus genome build with TopHat2. Aligned reads were summarized at the gene level against the Illumina iGenomes (available on the world wide web at tophat.cbcb.umd.edu/igenomes.html) NCBIM37 Mus musculus gene annotations using HTSeq (available on the world wide web at huber.embl.de/users/anders/HTSeq/doc/overview.html). […] The full dataset is available in the NCBI GEO database with the accession number GSE65267. Raw data is accessible on the world wide web at ncbi.nlm.nih.gov/geo/query/acc.cgi?acc=GSE65267.
Mice were sacrificed at 1, 2, 3, 7 and 14 days following administration. […] All mice were sacrificed at 14 days.
as §1, with “The quantity and quality of mRNA” for “RNA samples (n=3 mice/time point)”, “assayed on an Agilent 2200 TapeStation instrument and by SYBR qPCR assay.” for “sequenced at the Bioplymers Facility at the Harvard Medical School.”, “(https://code.google.com/p/cutadapt/),” for “(available on the world wide web at code.google.com/p/cutadapt/),”

Nc1nc2ncc(CNc3ccc(C(=O)N[C@@H](CCC(=O)O)C(=O)O)cc3)nc2c(=O)[nH]1 [FA, folic acid]
7SK RNA mean fold change from normal (Day 1): 0.04 fold | 2310042D19Rik mean fold change from normal (Day 1): 0.09 fold | 4930533I22Rik mean fold change from normal (Day 1): 0.11 fold | 4933417A18Rik mean fold change from normal (Day 1): 0.04 fold | 8430408G22Rik mean fold change from normal (Day 1): 0.09 fold | 9030619P08Rik mean fold change from normal (Day 1): 0.01 fold | Slc2a5 mean fold change from normal (Day 1): 0.07 fold | Slc4a1 mean fold change from normal (Day 1): 0.11 fold | Slc5a4a mean fold change from normal (Day 1): 0.02 fold | Slc5a12 mean fold change from normal (Day 1): 0.06 fold | Slc6a12 mean fold change from normal (Day 1): 0.02 fold | Slc7a13 mean fold change from normal (Day 1): 0.02 fold | Slc28a1 mean fold change from normal (Day 1): 0.02 fold | Slc34a1 mean fold change from normal (Day 1): 0.05 fold | Slc34a2 mean fold change from normal (Day 1): 11.81 fold | Slc34a3 mean fold change from normal (Day 1): 0.05 fold | Slc46a3 mean fold change from normal (Day 1): 0.11 fold | Slco1a1 mean fold change from normal (Day 1): 0.18 fold | Smoc2 mean fold change from normal (Day 1): 0.06 fold | Smpdl3b mean fold change from normal (Day 1): 222.02 fold | Snx31 mean fold change from normal (Day 1): 0.06 fold | Socs1 mean fold change from normal (Day 1): 77.54 fold | Sox4 mean fold change from normal (Day 1): 12.86 fold | Sox9 mean fold change from normal (Day 1): 24.10 fold | Spaca7 mean fold change from normal (Day 1): 27.30 fold | Spink6 mean fold change from normal (Day 1): 46.74 fold | Spp1 mean fold change from normal (Day 1): 113.22 fold | Spred3 mean fold change from normal (Day 1): 6.01 fold | Spsb1 mean fold change from normal (Day 1): 11.68 fold | Spt1c3 mean fold change from normal (Day 1): 0.07 fold | St8sia2 mean fold change from normal (Day 1): 3.07 fold | Stil mean fold change from normal (Day 1): 13.84 fold | Stk32a mean fold change from normal (Day 1): 10.38 fold | Stra6 mean fold change from normal (Day 1): 1.19 fold | Susd2 mean fold change from normal (Day 1): 0.18 fold | Sycn mean fold change from normal (Day 1): 0.07 fold | Synpr mean fold change from normal (Day 1): 0.23 fold | Sytl2 mean fold change from normal (Day 1): 3.75 fold | Tagln2 mean fold change from normal (Day 1): 8.92 fold | Tbx10 mean fold change from normal (Day 1): 0.06 fold | Timd2 mean fold change from normal (Day 1): 7.27 fold | Timp1 mean fold change from normal (Day 1): 175.24 fold | Tlr2 mean fold change from normal (Day 1): 6.43 fold | Tmem25 mean fold change from normal (Day 1): 0.11 fold | Tmem26 mean fold change from normal (Day 1): 0.10 fold | Tmem207 mean fold change from normal (Day 1): 0.01 fold | Tmsb10 mean fold change from normal (Day 1): 19.04 fold | Tnc mean fold change from normal (Day 1): 13.27 fold | Tnfaip3 mean fold change from normal (Day 1): 1.97 fold | Tnfrsf23 mean fold change from normal (Day 1): 18.16 fold | Top2a mean fold change from normal (Day 1): 5.38 fold | Tpx2 mean fold change from normal (Day 1): 3.87 fold | Tril mean fold change from normal (Day 1): 0.07 fold | Tsc22d1 mean fold change from normal (Day 1): 8.11 fold | Ttc36 mean fold change from normal (Day 1): 0.04 fold | Ttr mean fold change from normal (Day 1): 0.05 fold | Tyrobp mean fold change from normal (Day 1): 1.26 fold | Ugt3a1 mean fold change from normal (Day 1): 0.18 fold | Uhrf1 mean fold change from normal (Day 1): 16.90 fold | Upp2 mean fold change from normal (Day 1): 0.25 fold | Vcam1 mean fold change from normal (Day 1): 13.66 fold | Vill mean fold change from normal (Day 1): 0.09 fold | Vmn1r18 mean fold change from normal (Day 1): 0.02 fold | Vmn1r19 mean fold change from normal (Day 1): 0.03 fold | Vmn1r20 mean fold change from normal (Day 1): 0.02 fold | Vmn1r-ps11 mean fold change from normal (Day 1): 0.02 fold | Vstm2a mean fold change from normal (Day 1): 0.04 fold | Vtcn1 mean fold change from normal (Day 1): 64.93 fold | Vwce mean fold change from normal (Day 1): 0.06 fold | Wfdc15b mean fold change from normal (Day 1): 0.02 fold | Ybx2 mean fold change from normal (Day 1): 0.08 fold | 7SK RNA mean fold change from normal (Day 2): 0.04 fold | 2310042D19Rik mean fold change from normal (Day 2): 0.08 fold | 4930533I22Rik mean fold change from normal (Day 2): 0.09 fold | 4933417A18Rik mean fold change from normal (Day 2): 0.07 fold | 8430408G22Rik mean fold change from normal (Day 2): 0.23 fold | 9030619P08Rik mean fold change from normal (Day 2): 0.05 fold | Slc2a5 mean fold change from normal (Day 2): 0.09 fold | Slc4a1 mean fold change from normal (Day 2): 0.09 fold | Slc5a4a mean fold change from normal (Day 2): 0.37 fold | Slc5a12 mean fold change from normal (Day 2): 0.34 fold | Slc6a12 mean fold change from normal (Day 2): 0.13 fold | Slc7a13 mean fold change from normal (Day 2): 0.02 fold | Slc28a1 mean fold change from normal (Day 2): 0.19 fold | Slc34a1 mean fold change from normal (Day 2): 0.11 fold | Slc34a2 mean fold change from normal (Day 2): 16.20 fold | Slc34a3 mean fold change from normal (Day 2): 0.05 fold | Slc46a3 mean fold change from normal (Day 2): 0.36 fold
